# Values of other authors in US8828977B2, “Method of treating a subject suffering from degenerative disc disease using a matrix metalloprotease inhibitor” (priority 2006, dated 2014).
# Read-outs that look alike come from different tables or passages of the source.
# What was measured:
# [1] = tested on: human umbilical vein endothelial cells (HUVECs); details: HUVECs stimulated with angiogenic factors in vitro
# [2] = stability and solubility inversely related
# [3] = 142 animals, daily gavage 40 mg/kg for 7 days
# MMP-2 [4] = target: T1, MMP-2 (Homo sapiens, UniProt P08253); details: of the seven CMTs evaluated, zymography
# T1 sequence (P08253 110-660): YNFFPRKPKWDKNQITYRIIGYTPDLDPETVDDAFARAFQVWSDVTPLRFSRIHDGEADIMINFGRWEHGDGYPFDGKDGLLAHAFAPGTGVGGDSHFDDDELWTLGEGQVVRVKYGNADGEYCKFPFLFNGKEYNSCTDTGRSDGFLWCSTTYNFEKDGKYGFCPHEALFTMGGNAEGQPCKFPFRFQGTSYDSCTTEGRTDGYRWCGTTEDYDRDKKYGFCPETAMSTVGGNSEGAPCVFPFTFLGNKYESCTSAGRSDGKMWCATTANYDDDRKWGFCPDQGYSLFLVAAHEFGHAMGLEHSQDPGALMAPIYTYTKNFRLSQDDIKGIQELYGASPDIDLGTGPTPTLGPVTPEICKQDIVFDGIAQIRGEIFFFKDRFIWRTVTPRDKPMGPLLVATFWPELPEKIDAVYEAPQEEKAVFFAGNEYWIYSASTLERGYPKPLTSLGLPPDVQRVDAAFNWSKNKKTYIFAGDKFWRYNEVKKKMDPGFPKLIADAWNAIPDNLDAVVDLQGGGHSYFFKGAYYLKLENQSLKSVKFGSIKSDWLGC
# [5] = rats, single oral dose of suspension
# [6] = tested on: metastatic melanoma cells; details: metastatic melanoma cells in vitro
# HUVEC = details: in vitro
# [7] = tested on: Dunning MatLyLu rat prostate tumor
# COX-2 = target: T2, COX-2 (Homo sapiens, UniProt P35354); details: in vitro
# T2 sequence (P35354 18-604): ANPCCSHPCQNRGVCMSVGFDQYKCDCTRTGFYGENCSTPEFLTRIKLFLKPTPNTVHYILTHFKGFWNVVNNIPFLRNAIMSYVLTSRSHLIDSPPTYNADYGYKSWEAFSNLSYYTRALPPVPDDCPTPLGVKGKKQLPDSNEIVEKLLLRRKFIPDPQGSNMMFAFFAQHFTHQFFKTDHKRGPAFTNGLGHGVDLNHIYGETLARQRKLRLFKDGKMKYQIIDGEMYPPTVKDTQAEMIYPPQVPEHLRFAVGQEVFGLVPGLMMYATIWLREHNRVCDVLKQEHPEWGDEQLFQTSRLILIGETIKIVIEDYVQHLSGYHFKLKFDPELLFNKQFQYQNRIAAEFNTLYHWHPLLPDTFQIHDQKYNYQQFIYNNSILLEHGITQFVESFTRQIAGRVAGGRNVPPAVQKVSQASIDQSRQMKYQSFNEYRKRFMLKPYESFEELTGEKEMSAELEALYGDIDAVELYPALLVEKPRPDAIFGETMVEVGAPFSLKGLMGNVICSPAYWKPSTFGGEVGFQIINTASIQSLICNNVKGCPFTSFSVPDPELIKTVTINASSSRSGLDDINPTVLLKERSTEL
# [8] = tested on: prostate cancer cell lines
# [9] = monkeys, any dosing schedule, after three to five doses
# [10] = tested on: refractory metastatic cancers
# [11] = not given; remark: listed apart in the source
# [12] = tested on: lung foci (experimental metastasis); details: SCID mice
# [13] = tested on: AIDS-associated Kaposi's sarcoma
# [14] = two dose-escalation studies in humans
# [15] = not given; remark: listed apart in the source
# [16] = rats
# [17] = 18 KS patients, sampling lasted only 24 h
# MMP-9 = MMP-9 (Homo sapiens, UniProt P14780); details: of the seven CMTs evaluated, zymography
# Sequence of MMP-9 (P14780 94-707): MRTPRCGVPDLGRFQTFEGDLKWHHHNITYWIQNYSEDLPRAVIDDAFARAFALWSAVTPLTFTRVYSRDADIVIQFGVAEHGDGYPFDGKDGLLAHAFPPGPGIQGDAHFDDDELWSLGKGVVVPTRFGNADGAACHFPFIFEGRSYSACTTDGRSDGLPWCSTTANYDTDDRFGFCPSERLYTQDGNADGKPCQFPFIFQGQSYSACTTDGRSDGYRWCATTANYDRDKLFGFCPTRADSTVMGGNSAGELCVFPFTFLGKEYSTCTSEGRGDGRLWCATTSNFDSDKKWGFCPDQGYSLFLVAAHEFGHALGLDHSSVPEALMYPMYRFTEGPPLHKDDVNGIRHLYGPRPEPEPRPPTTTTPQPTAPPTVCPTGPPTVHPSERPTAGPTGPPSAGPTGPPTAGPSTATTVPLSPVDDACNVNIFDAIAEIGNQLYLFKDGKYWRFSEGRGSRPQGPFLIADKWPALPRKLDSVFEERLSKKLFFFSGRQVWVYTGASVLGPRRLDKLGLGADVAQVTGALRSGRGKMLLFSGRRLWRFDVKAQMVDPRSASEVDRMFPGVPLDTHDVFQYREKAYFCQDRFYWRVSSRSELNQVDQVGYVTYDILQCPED
# human melanoma cell line = details: activity comparable to doxycycline
# [18] = tested on: rheumatoid arthritis synoviocytes; details: activity comparable to doxycycline
# [19] = tested on: panel of prostate cancer cell lines; details: MTT assays
# MMP-2 [20] = target: T1, MMP-2
# immune responses = details: in vivo
# [21] = mice
# [22] = 35 patients with refractory metastatic cancers
# [23] = non-competitive component, read-out: Ki′ (the dissociation equilibrium constant) value for MMP-2
structure (smiles),measurement,setting,value
NC(=O)C1=C(O)C[C@@H]2C[C@@H]3Cc4cccc(O)c4C(=O)C3=C(O)[C@]2(O)C1=O [CMT-3],microtubule formation,[1],inhibited microtubule formation
same,pH of maximum stability,[2],< 4
same,adverse effects or weight loss,[3],no adverse effects or weight loss
same,rank as MMP-2 inhibitor,MMP-2 [4],most effective MMP-2 inhibitor
same,half-life,[5],approximately 6 h
same,vascular mimicry,[6],inhibited this mechanism
same,HUVEC proliferation,HUVEC,inhibited HUVEC proliferation
same,water solubility,,~10 µg/mL
same,instances of lung metastases,"[7]; daily gavage at 40 mg/kg for 7 days, controls 59.5±13.9",28.9±15.4 tumors/animal
same,decrease of primary tumor incidence,[7]; pre-dosing the rats for 7 days,55±9%
same,delay of tumor growth,[7]; pre-dosing the rats for 7 days,27±9.3%
same,reduction in metastases,[7]; pre-dosing the rats for 7 days,58±8%
same,COX-2 enzyme activity,COX-2,inhibit COX-2 enzyme activity
same,"apoptosis, necrosis and cell-cycle arrest",[8]; added to prostate cell lines in vitro,increased apoptosis and necrosis as well as cell-cycle arrest
same,time of exposure to apoptosis induction,[8]; prostate cancer cell lines,≤ 4 h
same,induction of apoptosis,"[8]; prostate cancer cell lines, concentration-dependent",induced apoptosis
same,dose resulting in mortalities,[9],100 mg/kg/day
same,iNOS mRNA degradation,iNOS mRNA,increases iNOS mRNA degradation
same,patients experiencing some phototoxicity,"[10]; 50 mg/m^2/day, sun-block mandatory",over 50%
same,cases of drug-induced lupus,[10]; [22],three cases
same,cases of reversible sideroblastic anemia,[10]; [22],three cases
same,maximum tolerated dose (MTD),[10]; [22],98 mg/m^2/day
same,change between pre- and post-treatment levels of MMP-2 or MMP-9,"[10]; 35 patients, overall",no significant change
same,"sunburn (photosensitivity), dose-limiting","[10]; highest dose 98 mg/m^2/day, despite prophylactic measures",all 18 patients developed sunburn
same,musculoskeletal side effects,[10]; human trials,no reports
same,disease-stabilization,[10]; three out of seven patients with tumors of non-epithelial origin,43%
same,dose with histopathological lesions in the small intestine and thymus,[11]; rats,100 mg/kg/day
same,plasma level at which dose-limiting gastrointestinal toxicities occurred,[11]; rats (stated for both species),≥ 15000 ng/mL
same,metastatic invasion compared with control animals,[12]; higher dose 100 mg/kg,did not significantly impact
same,number of lung foci,[12]; orally at 40 mg/kg,significantly reduced
same,median duration of response,[13]; 18 KS patients,> 25 weeks
same,median time to response,[13]; 18 KS patients,4 weeks
same,overall response rate,"[13]; 18 KS patients, one complete and seven partial responses",44%
same,doses not tolerated,[13]; KS patients,> 50 mg/m^2/day
same,evaluable patients with decrease in plasma concentration of MMP-2,[13]; KS patients,61%
same,evaluable patients with decrease in plasma concentration of MMP-9,[13]; KS patients,37%
same,doses reasonably well tolerated,"[13]; KS patients, dose levels 25, 50 and 70",up to 70 mg/m^2/day
same,increase of MMP-2 level from baseline,[13]; non-responding patients,300 ng/mL
same,decrease of MMP-2 level from baseline,[13]; responding patients,56 ng/mL
same,dose up to which plasma levels increased (plateau of steady-state concentration above),[14],up to 50 mg/m^2/day
same,total apparent clearance,[15]; [22],0.163 ± 0.0967 mL/min/kg
same,median half-life,"[15]; 35 patients, one-compartment model",approximately 56.1 h
same,median apparent total clearance,[15]; humans,0.17 mL/min/kg
same,median pseudo-steady-state apparent volume of distribution,[15]; humans,0.64 L/kg
same,terminal half-life,[16],7 h
same,median half-life,[17],39.3 h
same,rank as MMP-9 inhibitor,MMP-9,second most potent MMP-9 inhibitor
same,inhibiting the in vitro invasive ability,human melanoma cell line,most active
same,inhibiting the in vitro invasive ability,[18],most active
same,cytotoxicity,[19],significantly cytotoxic
same,Ki,"MMP-2 [20]; competitive component, read-out: dissociation binding constant (Ki) value for MMP-2",74 µM
same,Ki,MMP-2 [20]; [23],148 µM
C[C@H]1c2cccc(O)c2C(=O)C2=C(O)[C@]3(O)C(=O)C(C(N)=O)=C(O)[C@@H](N(C)C)[C@@H]3[C@@H](O)[C@@H]21 [doxycycline],effect on immune responses,immune responses,moderately inhibit immune responses
same,hepatotoxic effect,[21],hepatotoxic effect
same,cytotoxicity,[19],significantly cytotoxic
same,Ki,MMP-2 [20]; [23],144 µM
